Source: publication PMC9953095, “Design, Synthesis and Biological Evaluation of Quinazolinamine Derivatives as Breast Cancer Resistance Protein and P-Glycoprotein Inhibitors with Improved Metabolic Stability” (Biomolecules, 2023)

Columns and labels:
[1] = test system: BCRP localization in H460/MX20 cells; assay: Immunofluorescence assay of BCRP localization in H460/MX20 cells; assay type: cell-based, human; conditions: 5 μM for 24, 48, and 72 h, Figure 8A,C
Method: (§1) For immunofluorescence analysis, parental and drug-resistant cells were seeded in 24-well plates at 10,000–20,000 cells/well and incubated for 24 h. The cells were incubated with or without cyclopropyl quinazolinamine 22 or azide quinazolinamine 33 for 24 h, 48 h, and 72 h. Thereafter, cells were washed with PBS and fixed with 4% paraformaldehyde for 10 min at room temperature and then rinsed with PBS twice, followed by permeabilization with 1% Triton X-100 for 10 min at 4 °C. The cells were again washed twice with PBS, and then blocked with 6% BSA for 1 h at 37 °C. Fixed cells were incubated with monoclonal antibody against the BCRP protein (BXP 21) (Sigma-Aldrich, Inc., St. Louis, MO) (1:1000) or P-gp (F4) (Sigma-Aldrich, Inc., St. Louis, MO, USA) overnight at 4 °C, followed by two washes with PBS. The cells were then further incubated with Alexa flour 488 goat anti-mouse IgG (1:1000) (Abcam plc.) for 2 h at 37 °C. After the cells were washed twice with PBS, 4′,6-diamidino-2-phenylindole (DAPI) (2 µg/mL) was used for nuclear counterstaining. The immunofluorescence images were generated using a Nikon TE-2000S fluorescence microscope (Nikon Instruments Inc, Melville, NY, USA).

[2] = test system: P-gp protein in KB-C2 cells; assay: Western blot of P-gp expression in KB-C2 cells; assay type: cell-based, human
Method: Cells in T25 flask were washed with ice-cold PBS. Lysis buffer (100 µL) was added into T25 flask. Using a cell scraper, scrape adherent cells were scraped off the flask and the cell suspension was transferred into a microcentrifuge tube (1.5 mL). Cells were agitated for 20 min at 4 °C and cell lysate was centrifuged mixture at 4 °C for 20 min at 12,000 rpm. The supernatant (lysate) was used for the gel electrophoresis. Equal amounts of total cell lysates (20 µg protein) were resolved by sodium dodecyl sulfate polyacrylamide gel electrophoresis (SDS-PAGE) and electrophoretically transferred onto polyvinylidene fluoride (PVDF) membranes. After incubation in a blocking solution (5% milk) for 2 h at room temperature, the membranes were incubated overnight with primary monoclonal antibodies against GAPDH (GA1R) (Invitrogen, Carlsbad, CA, USA) at 1:1000 dilution of BCRP protein (BXP 21) (Sigma-Aldrich, Inc., St. Louis, MO, USA) (1:1000) or P-gp (F4) (Sigma-Aldrich, Inc., St. Louis, MO, USA) at 4 °C, and were further incubated with horseradish […] (HRP)-conjugated secondary antibody (Thermo Fisher Scientific Inc., Waltham, MA, USA) at 1:1000 dilution for 2 h at room temperature. The protein antibody complex was detected using an enhanced chemiluminescence detection system. The grayscale ratio was analyzed by ImageJ and normalized by the grayscale of the ABC protein divided by that of GAPDH.

H460 cells = assay: [3H]-mitoxantrone accumulation assay, H460; assay type: cell-based, human; conditions: parental H460 cells; compound 5 μM; Figure 6A
Method: To determine the accumulation of drugs on H460, H460/MX20, KB-3-1, and KB-C2 cells, the cells ([…] cells/well) were seeded in the 24-well plates and incubated at 37 °C with 5% CO2 [17]. After 12 h of incubation, a test compound (5 µM) was added and the plates were incubated at 37 °C for 2 h. Cells were then incubated with 0.01 µM [^3H]-MX or [^3H]-paclitaxel-containing medium for an additional 2 h at 37 °C, with or without a test compound. The cells were washed twice with ice-cold phosphate-buffered saline (PBS), trypsinized and lysed at the end of incubation. The radioactivity was measured using the Packard TRICARB1 1900A liquid scintillation analyzer.

[3] = test system: P-gp localization in KB-C2 cells; assay: Immunofluorescence assay of P-gp localization in KB-C2 cells; assay type: cell-based, human; conditions: Figure 8B
Method: as §1

P-gp ATPase = molecular target: T1, P-gp ATPase (Homo sapiens, UniProt P08183); assay: Vanadate-sensitive P-gp ATPase assay; assay type: biochemical; conditions: membrane vesicles of High Five insect cells; Figure 10C
T1 construct: host or cells: High Five insect cells (membrane vesicles)
T1 sequence (P08183 whole entry): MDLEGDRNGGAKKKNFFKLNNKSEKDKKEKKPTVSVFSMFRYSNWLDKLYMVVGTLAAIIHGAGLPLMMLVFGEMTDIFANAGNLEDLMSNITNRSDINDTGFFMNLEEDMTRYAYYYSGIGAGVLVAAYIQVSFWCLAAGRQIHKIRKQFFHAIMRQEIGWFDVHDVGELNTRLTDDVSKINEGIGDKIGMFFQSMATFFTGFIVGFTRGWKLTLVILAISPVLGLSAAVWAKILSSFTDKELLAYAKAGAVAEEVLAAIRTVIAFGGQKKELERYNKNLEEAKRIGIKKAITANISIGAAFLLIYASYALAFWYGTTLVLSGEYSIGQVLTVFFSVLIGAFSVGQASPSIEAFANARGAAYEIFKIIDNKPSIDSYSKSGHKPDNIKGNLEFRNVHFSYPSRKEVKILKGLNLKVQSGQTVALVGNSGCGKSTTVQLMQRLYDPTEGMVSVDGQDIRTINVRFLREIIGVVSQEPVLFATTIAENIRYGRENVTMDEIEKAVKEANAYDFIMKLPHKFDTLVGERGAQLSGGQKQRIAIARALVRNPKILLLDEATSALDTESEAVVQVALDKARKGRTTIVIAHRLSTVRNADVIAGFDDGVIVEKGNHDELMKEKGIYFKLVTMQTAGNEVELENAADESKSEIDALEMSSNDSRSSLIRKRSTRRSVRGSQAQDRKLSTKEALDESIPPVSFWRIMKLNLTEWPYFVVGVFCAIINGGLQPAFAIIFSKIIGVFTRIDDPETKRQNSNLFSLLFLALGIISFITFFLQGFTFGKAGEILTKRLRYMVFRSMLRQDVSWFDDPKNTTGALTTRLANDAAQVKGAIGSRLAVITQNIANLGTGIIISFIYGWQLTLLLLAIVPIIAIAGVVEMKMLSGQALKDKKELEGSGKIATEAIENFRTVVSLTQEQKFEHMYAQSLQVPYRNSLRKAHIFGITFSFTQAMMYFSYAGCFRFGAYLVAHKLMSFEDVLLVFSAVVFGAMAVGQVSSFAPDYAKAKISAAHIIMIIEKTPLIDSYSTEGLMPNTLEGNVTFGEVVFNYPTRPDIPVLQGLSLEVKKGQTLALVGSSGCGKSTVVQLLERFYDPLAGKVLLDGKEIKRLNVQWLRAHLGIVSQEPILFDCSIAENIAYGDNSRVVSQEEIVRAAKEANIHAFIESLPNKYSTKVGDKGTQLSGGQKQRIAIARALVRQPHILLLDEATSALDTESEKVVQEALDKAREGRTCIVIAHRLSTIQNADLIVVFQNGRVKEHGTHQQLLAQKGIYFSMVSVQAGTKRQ
Method: The vanadate (Vi)-sensitive ATPase activity of BCRP and P-gp in the membrane vesicles of High Five insect cells was measured as described previously. The results were presented as vanadate-sensitive ATPase activities by determining the difference in inorganic phosphate liberation measured in the presence and absence of sodium orthovanadate.

c1ccc2c(Nc3ccc(C4CC4)cc3)nc(-c3ccncc3)nc2c1 [Compound 22, N-(4-Cyclopropylphenyl)-2-(pyridin-4-yl)quinazolin-4-amine]
BCRP fluorescence on the membranes / intracellular localization of BCRP [1]: decreased gradually
cytoplasmic P-gp expression level ([2]; KB-C2 cytoplasm fraction, Figure 9D): slightly increased
expression level of the P-gp protein on the membrane ([2]; KB-C2 membrane fraction, Figure 9C): slightly decreased
P-gp protein expression ([2]; KB-C2 total cell lysate, Figure 7B): nor did it change the P-gp protein expression
accumulation of mitoxantrone (H460 cells): slightly increase
P-gp fluorescence on the membranes ([3]; 5 μM at 72 h): decreased slightly
P-gp fluorescence on the membranes ([3]; 5 μM for 24 and 48 h): did not decrease significantly
effect on Vi-sensitive P-gp ATPase activity (P-gp ATPase): neither stimulate or inhibit
